From the supplement of paper PMC11451515

Legend:
Details in all cases: 48 h
[1] = system: SEM cells; experiment: cell viability relative to DMSO control; higher = less cytotoxic
Outline: (§1)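 NOMO1 or SEM (500 cells/well) or P12-Ichikawa (1000 cells/well) leukemia cells were adapted for at least four passages in each medium. They were seeded in 1536-well plates (5 μl) and pin-dosed with library compounds in DMSO over an 11-point threefold series, 47 μM to 0.79 nM. CellTiter-Glo One luminescence was read after 48 h at 37°C. Viability is the per-plate percentage relative to DMSO wells, with cell-free wells as background.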

[2] = system: NOMO1; experiment: as above
Outline: as §1

[3] = system: P12-Ichikawa; experiment: as above
Outline: as §1

[4] = system: SEM cells; experiment: AUC of viability dose-response curve (% viability x log10 dose units); higher = less sensitive
Outline: (§2)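 Leukemia cells adapted to each medium were seeded in 1536-well plates (500 or 1000 cells/well). They were dosed with library compounds in DMSO at 11 threefold doses, 47 μM to 0.79 nM, for 48 h at 37°C. CellTiter-Glo One luminescence was normalised per plate to DMSO and cell-free wells. Area under the curve was integrated by trapezoidal rule over log10 doses on a four-parameter log-logistic fit; curves exceeding full viability were scaled and curves failing quality control removed.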

[5] = system: NOMO1; experiment: as above
Outline: as §2

[6] = system: P12-Ichikawa; experiment: as above
Outline: as §2

Cc1cc(SCc2sc(-c3ccc(C(F)(F)F)c(F)c3)nc2C)ccc1OCC(=O)O
cell viability [%]
Details	[1]	[2]	[3]
HPLM + 10% dialyzed FBS, 0.000781 µM	104	104	106
HPLM + 10% dialyzed FBS, 0.00234 µM	107	110	104
HPLM + 10% dialyzed FBS, 0.00702 µM	105	120	100
HPLM + 10% dialyzed FBS, 0.0211 µM	40.9	87.7	92.4
HPLM + 10% dialyzed FBS, 0.0632 µM	103	114	105
HPLM + 10% dialyzed FBS, 0.19 µM	109	103	106
HPLM + 10% dialyzed FBS, 0.569 µM	108	110	106
HPLM + 10% dialyzed FBS, 1.71 µM	111	95.4	101
HPLM + 10% dialyzed FBS, 5.12 µM	105	93.7	100
HPLM + 10% dialyzed FBS, 15.4 µM	98.9	96.6	86.2
HPLM + 10% dialyzed FBS, 46.1 µM	96.1	92.9	91.5
RPMI 5 mM glucose + 10% FBS, 0.000781 µM	102	98.2	98.4
RPMI 5 mM glucose + 10% FBS, 0.00234 µM	74.9	90.4	102
RPMI 5 mM glucose + 10% FBS, 0.00702 µM	96.7	86	93.1
RPMI 5 mM glucose + 10% FBS, 0.0211 µM	43.2	90.3	81.6
RPMI 5 mM glucose + 10% FBS, 0.0632 µM	100	91	97.3
RPMI 5 mM glucose + 10% FBS, 0.19 µM	107	98.8	99.7
RPMI 5 mM glucose + 10% FBS, 0.569 µM	99.4	99.6	94.4
RPMI 5 mM glucose + 10% FBS, 1.71 µM	101	88.8	93.4
RPMI 5 mM glucose + 10% FBS, 5.12 µM	104	88.7	96.7
RPMI 5 mM glucose + 10% FBS, 15.4 µM	93.8	92.6	89.5
RPMI 5 mM glucose + 10% FBS, 46.1 µM	103	86.8	87.9
RPMI 5 mM glucose + 10% dialyzed FBS, 0.000781 µM	93.4	99.5	93.3
RPMI 5 mM glucose + 10% dialyzed FBS, 0.00234 µM	93.3	103	94.4
RPMI 5 mM glucose + 10% dialyzed FBS, 0.00702 µM	106	93.5	96.7
RPMI 5 mM glucose + 10% dialyzed FBS, 0.0211 µM	48.4	95	92.8
RPMI 5 mM glucose + 10% dialyzed FBS, 0.0632 µM	93.6	99.2	89.5
RPMI 5 mM glucose + 10% dialyzed FBS, 0.19 µM	104	111	97
RPMI 5 mM glucose + 10% dialyzed FBS, 0.569 µM	100	97.9	93.6
RPMI 5 mM glucose + 10% dialyzed FBS, 1.71 µM	100	94	92.8
RPMI 5 mM glucose + 10% dialyzed FBS, 5.12 µM	91.6	104	98
RPMI 5 mM glucose + 10% dialyzed FBS, 15.4 µM	101	87.4	80.9
RPMI 5 mM glucose + 10% dialyzed FBS, 46.1 µM	96.5	97	76.3

AUC of viability dose-response curve
Details	[4]	[5]	[6]
HPLM + 10% dialyzed FBS	461	458	466
RPMI 5 mM glucose + 10% FBS	432	439	449
RPMI 5 mM glucose + 10% dialyzed FBS	446	467	439

COc1ccc2cccc(CCNC(C)=O)c2c1
cell viability [%]
Details	[1]	[2]	[3]
HPLM + 10% dialyzed FBS, 0.000781 µM	105	111	104
HPLM + 10% dialyzed FBS, 0.00234 µM	104	114	100
HPLM + 10% dialyzed FBS, 0.00702 µM	107	95.7	102
HPLM + 10% dialyzed FBS, 0.0211 µM	111	123	102
HPLM + 10% dialyzed FBS, 0.0632 µM	109	104	96
HPLM + 10% dialyzed FBS, 0.19 µM	97.6	87.9	103
HPLM + 10% dialyzed FBS, 0.569 µM	112	122	99
HPLM + 10% dialyzed FBS, 1.71 µM	114	104	104
HPLM + 10% dialyzed FBS, 5.12 µM	109	101	102
HPLM + 10% dialyzed FBS, 15.4 µM	49.2	89.7	92.7
HPLM + 10% dialyzed FBS, 46.1 µM	105	85	89.6
RPMI 5 mM glucose + 10% FBS, 0.000781 µM	110	90.8	98.3
RPMI 5 mM glucose + 10% FBS, 0.00234 µM	83.4	91.6	104
RPMI 5 mM glucose + 10% FBS, 0.00702 µM	107	86.5	105
RPMI 5 mM glucose + 10% FBS, 0.0211 µM	100	92.9	109
RPMI 5 mM glucose + 10% FBS, 0.0632 µM	105	84.7	103
RPMI 5 mM glucose + 10% FBS, 0.19 µM	90	84.6	107
RPMI 5 mM glucose + 10% FBS, 0.569 µM	109	85.6	104
RPMI 5 mM glucose + 10% FBS, 1.71 µM	106	94.7	101
RPMI 5 mM glucose + 10% FBS, 5.12 µM	110	83.1	99.6
RPMI 5 mM glucose + 10% FBS, 15.4 µM	40.7	83.2	97.8
RPMI 5 mM glucose + 10% FBS, 46.1 µM	95	80.1	95.9
RPMI 5 mM glucose + 10% dialyzed FBS, 0.000781 µM	107	94.7	97.6
RPMI 5 mM glucose + 10% dialyzed FBS, 0.00234 µM	106	96.6	103
RPMI 5 mM glucose + 10% dialyzed FBS, 0.00702 µM	101	105	110
RPMI 5 mM glucose + 10% dialyzed FBS, 0.0211 µM	111	82.5	96.8
RPMI 5 mM glucose + 10% dialyzed FBS, 0.0632 µM	120	91.3	104
RPMI 5 mM glucose + 10% dialyzed FBS, 0.19 µM	94.8	97.4	104
RPMI 5 mM glucose + 10% dialyzed FBS, 0.569 µM	94.7	97.2	97.4
RPMI 5 mM glucose + 10% dialyzed FBS, 1.71 µM	104	90.2	93.8
RPMI 5 mM glucose + 10% dialyzed FBS, 5.12 µM	124	86	94.3
RPMI 5 mM glucose + 10% dialyzed FBS, 15.4 µM	37.4	93.7	98.2
RPMI 5 mM glucose + 10% dialyzed FBS, 46.1 µM	101	79.6	89.6

AUC of viability dose-response curve
Details	[4]	[5]	[6]
HPLM + 10% dialyzed FBS	451	434	470
RPMI 5 mM glucose + 10% FBS	453	415	468
RPMI 5 mM glucose + 10% dialyzed FBS	452	440	460

OC1=C(C=CC=C1)C2=CC=C(C=C2)C3=CSC4=C3C(=C(/C#N)C(=O)N4)/O
cell viability [%]
Details	[1]	[2]	[3]
HPLM + 10% dialyzed FBS, 0.000781 µM	114	119	124
HPLM + 10% dialyzed FBS, 0.00234 µM	123	119	127
HPLM + 10% dialyzed FBS, 0.00702 µM	131	120	124
HPLM + 10% dialyzed FBS, 0.0211 µM	129	102	124
HPLM + 10% dialyzed FBS, 0.0632 µM	120	112	119
HPLM + 10% dialyzed FBS, 0.19 µM	132	110	119
HPLM + 10% dialyzed FBS, 0.569 µM	124	119	112
HPLM + 10% dialyzed FBS, 1.71 µM	113	118	116
HPLM + 10% dialyzed FBS, 5.12 µM	96.6	126	114
HPLM + 10% dialyzed FBS, 15.4 µM	113	105	111
HPLM + 10% dialyzed FBS, 46.1 µM	103	102	110
RPMI 5 mM glucose + 10% FBS, 0.000781 µM	111	–	–
RPMI 5 mM glucose + 10% FBS, 0.00234 µM	109	–	–
RPMI 5 mM glucose + 10% FBS, 0.00702 µM	118	–	–
RPMI 5 mM glucose + 10% FBS, 0.0211 µM	112	–	–
RPMI 5 mM glucose + 10% FBS, 0.0632 µM	105	–	–
RPMI 5 mM glucose + 10% FBS, 0.19 µM	90.5	–	–
RPMI 5 mM glucose + 10% FBS, 0.569 µM	98.6	–	–
RPMI 5 mM glucose + 10% FBS, 1.71 µM	112	–	–
RPMI 5 mM glucose + 10% FBS, 5.12 µM	87.4	–	–
RPMI 5 mM glucose + 10% FBS, 15.4 µM	96.7	–	–
RPMI 5 mM glucose + 10% FBS, 46.1 µM	90.9	–	–
RPMI 5 mM glucose + 10% dialyzed FBS, 0.000781 µM	113	117	–
RPMI 5 mM glucose + 10% dialyzed FBS, 0.00234 µM	117	123	–
RPMI 5 mM glucose + 10% dialyzed FBS, 0.00702 µM	124	131	–
RPMI 5 mM glucose + 10% dialyzed FBS, 0.0211 µM	133	139	–
RPMI 5 mM glucose + 10% dialyzed FBS, 0.0632 µM	121	122	–
RPMI 5 mM glucose + 10% dialyzed FBS, 0.19 µM	126	112	–
RPMI 5 mM glucose + 10% dialyzed FBS, 0.569 µM	115	122	–
RPMI 5 mM glucose + 10% dialyzed FBS, 1.71 µM	117	119	–
RPMI 5 mM glucose + 10% dialyzed FBS, 5.12 µM	104	114	–
RPMI 5 mM glucose + 10% dialyzed FBS, 15.4 µM	110	123	–
RPMI 5 mM glucose + 10% dialyzed FBS, 46.1 µM	100	109	–

AUC of viability dose-response curve
Details	[4]	[5]	[6]
HPLM + 10% dialyzed FBS	453	462	448
RPMI 5 mM glucose + 10% FBS	434	449	456
RPMI 5 mM glucose + 10% dialyzed FBS	457	453	453
